Laboratory results published in publication PMC8113459, “Selective inhibition of cullin 3 neddylation through covalent targeting DCN1 protects mice from acetaminophen-induced liver toxicity” (Nature Communications, 2021).
“And” between values parts separate entries of the source, which are not always exact repeats. Identical values can stand only once. Like-named read-outs stand apart in the source and are kept apart here. Values belong to the compound of their own block, whether it stands above or below them.

What was measured:
HCT116 cells = assay: Cell viability assay (WST-8), HCT116; assay type: cell-based, human; conditions: Homo sapiens, HCT-116; 72 h; cell line assigned from panel order; read-out: EC50, cell growth inhibition
In short: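 Cells (2000–3000 per well) were treated with serial dilutions of DCN1 inhibitors for 3 days, then incubated 1–3 h with WST-8 and absorbance read at 450 nm. Growth inhibition was sample-to-control absorbance ratio, with EC50 from fitted curves.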

[1] = biological target: T1, cellular DCN1 protein in U2OS cells (Homo sapiens, UniProt Q96GG9); assay: Cellular thermal shift assay (CETSA), DCN1; assay type: cell-based; conditions: 1 h, 53 °C
T1 construct: endogenous in cells; host or cells: U2OS
Description: CETSA was performed as previously described. The U2OS cells (5 × 10^5 per sample) were treated with compounds or with DMSO for 1 h, washed with PBS for three times, and dissolved in 50 µL PBS supplemented with protease inhibitor, followed by heating at 53 °C in a Mastercycler gradient (Eppendorf, New York, USA). Treated cells were then subjected to snap-freezing in liquid nitrogen and thawed on ice for three cycles. The protein level of DCN1 and DCN3 in equal amount of the supernatant was examined by western blot methods. GAPDH was used as a control. Results are representative of three independent experiments.

DCN1 = DCN1 (Homo sapiens, UniProt Q96GG9); assay: Intact-protein mass spectrometric analysis, Method B (DCN1); assay type: binding; conditions: 1 h incubation, 100 nM protein
Description: Method B: Recombinant DCN1 or DCN3 protein (100 nM in 25 mM Tris 7.5, 200 mM NaCl, 1 mM DTT buffer) was incubated with 1.2-fold excess of the DCN1 inhibitors at 37 °C for 10 min, 1 h, or 3 h. Following incubation, the protein was analyzed by LC–MS (Agilent Q-TOF 6545) under the following conditions: fragmentor voltage, 300 V; skimmer voltage, 75 V; nozzle voltage, 100 V; sheath gas temperature, 350 °C; and drying gas temperature, 325 °C. MassHunter Qualitative Analysis software (Agilent) was used to analyze the data. Intact protein masses were obtained using the maximum entropy deconvolution algorithm. The mass spectrometry data in Supplementary Figs. 14–17 were generated by Method B.

KYSE70 cells = assay: Cell viability assay (WST-8), KYSE70; assay type: cell-based, human; conditions: for cell viability relative to control: replicates
Description: (§1) Cell viability assay was performed as previously described. The effect of DCN1 inhibitors on cell growth was evaluated by a WST-8 [2-(2-methoxy-4-nitrophenyl)-3-(4-nitrophenyl)-5-(2,4-disulfophenyl)-2H-tetrazolium, monosodium salt assay (Dojindo Molecular Technologies, Inc). Cells (2000–3000 cells in each well) were seeded in 96-well tissue culture plates in medium (100 μL) and treated with serial dilution of DCN1 inhibitors for 3 days. At the end of incubation, WST-8 dye (20 μL) was added to each well and incubated for 1–3 h, then the absorbance was measured in a microplate reader (Molecular Devices) at 450 nm. Cell growth inhibition was evaluated as the ratio of the absorbance of the sample to that of the control. The values were inserted into Prism software, and the curves and the EC50 values were produced by Prism software.

[2] = Cell viability assay (WST-8), KYSE70; assay type: cell-based, human; conditions: human, KYSE70 cells, replicates, read-out: cell viability relative to control
Description: as §1

[3] = tested on: APAP-induced liver injury; assay: APAP-induced liver injury: alanine aminotransferase (ALT) level; assay type: in vivo, mouse; conditions: for reduction of the elevated ALT level induced by 400 mg/kg of APAP: 24 h time point
Description: The in vivo studies were performed under animal protocols (PRO00007499) and (PRO00006638) approved by the Institutional Animal Care & Use Committee of the University of Michigan, in accordance with the recommendations in the Guide for the Care and Use of Laboratory Animals of the National Institutes of Health. C57BL/6 WT mice (~8 weeks, male, normal chow) were purchased from the Jackson Laboratory and randomly divided into eight groups (8–9 mice per group) treated (IP) as follows: phosphate-buffered saline vehicle once per day for 3 days (G1), APAP alone a single dose at 400 mg/kg on day 1 (G2), DI-1859 alone 25 mg/kg once per day for 3 days (G3), DI-1859 alone 50 mg/kg once per day for 3 days (G4), pretreatment (1 day before the APAP administration) with DI-1859 at 25 mg/kg once per day for 3 days followed with APAP at 400 mg/kg on day (G5), pretreatment (1 day before the APAP administration) with DI-1859 at 50 mg/kg once per day for 3 days followed with APAP at 400 mg/kg on day (G6), APAP a single dose at 400 mg/kg (3 h before the first DI-1859 administration) followed with DI-1859 at 25 mg/Kg once per day for 3 days (G7), and APAP a single dose at 400 mg/kg (3 h before the first DI-1859 administration) followed with DI-1859 at 50 mg/Kg once per day for 3 days (G8).
To induce acute liver injury, animals received PBS or APAP (400 mg/kg, sigma, A7085) through I.P. injection at 12 p.m. and were sacrificed 48 h afterward. To examine the protective effect of DI-1859 (groups 5 and 6), animals were I.P. injected with compound for 3 consecutive days (9 a.m. on each day, starting 1 day before APAP administration). To examine the restorative effect of DI-1859 (groups 7 and 8), animals were I.P. injected with compound 3 h after APAP administration followed by two additional treatments (9 a.m. on the next 2 days). Body weight and blood glucose level measurement, along with blood sample collection, were performed at 12 p.m. on each day.
Blood glucose levels were determined using glucometers (Bayer Corp., Pittsburgh, PA). Plasma ALT activity was measured using an ALT reagent set (Pointe Scientific Inc., Canton, MI).

T1 sequence (Q96GG9 whole entry): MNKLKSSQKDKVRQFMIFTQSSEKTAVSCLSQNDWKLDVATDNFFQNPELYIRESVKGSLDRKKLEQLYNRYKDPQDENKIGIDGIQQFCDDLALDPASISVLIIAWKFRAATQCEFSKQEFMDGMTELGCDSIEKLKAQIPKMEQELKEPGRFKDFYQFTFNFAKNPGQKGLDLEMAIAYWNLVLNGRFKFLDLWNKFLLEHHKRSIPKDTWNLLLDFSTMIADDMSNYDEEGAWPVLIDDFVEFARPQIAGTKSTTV
DCN1, sequence (Q96GG9 whole entry, the tested form may be a part): as the sequence (Q96GG9 whole entry) above

EC50 (HCT116 cells): > 1 µM
concentration as low as which the thermal stability of cellular DCN1 protein is enhanced [1]: ≤ 0.3 nM
times more potent than DI-591 and DI-1548DD in enhancing the thermal stability of cellular DCN1 protein [1]: > 1000 times
covalent complex formation with DCN1 (DCN1): rapid and complete formation
SMILES: C=C(CN1CCOCC1)C(=O)NC[C@@H](NC(=O)[C@H](Cc1nc2ccc(C(C)C)cc2s1)NC(=O)CC)C1CCCCC1 [DI-1548]
EC50 (KYSE70 cells; Homo sapiens, KYSE-70, 72 h, cell line assigned from panel order, read-out: EC50, cell growth inhibition): > 1 µM
cell viability relative to control (KYSE70 cells; conc 10, 72 h): 103.349 and 104.463
cell viability relative to control (KYSE70 cells; conc 30, 72 h): 98.066 and 96.6942
cell viability relative to control (KYSE70 cells; conc 100, 72 h): 94.5283 and 108.512
cell viability relative to control (KYSE70 cells; conc 300, 72 h): 88.5377 and 82.0661
cell viability relative to control (KYSE70 cells; conc 1000, 72 h): 64.6226 and 79.9057 and 54.5868
viability at 72 h ([2]; conc 10, 72 h): 99.4%
viability at 72 h ([2]; conc 30, 72 h): 104%
viability at 72 h ([2]; conc 100, 72 h): 99.4%
viability at 72 h ([2]; conc 300, 72 h): 94.1%

SMILES: C=C(CN(C)C)C(=O)NC[C@@H](NC(=O)[C@H](Cc1nc2ccc(C(C)C)cc2s1)NC(=O)CC)C1CCCCC1 [DI-1859]
ALT(IU/L) mean ([3]; G3 PBS + Low, Time 0 hr): 26.4101 IU/L
ALT(IU/L) mean ([3]; G3 PBS + Low, Time 24 hr): 28.0781 IU/L
ALT(IU/L) mean ([3]; G4 PBS + High, Time 0 hr): 28.6341 IU/L
ALT(IU/L) mean ([3]; G4 PBS + High, Time 24 hr): 23.9081 IU/L
ALT(IU/L) mean ([3]; G5 APAP + Low-pre, Time 0 hr): 32.3717 IU/L
ALT(IU/L) mean ([3]; G5 APAP + Low-pre, Time 24 hr): 2856 IU/L
ALT(IU/L) mean ([3]; G5 APAP + Low-pre, Time 48 hr): 171.99 IU/L
ALT(IU/L) mean ([3]; G6 APAP + H-pre, Time 0 hr): 30.6419 IU/L
ALT(IU/L) mean ([3]; G6 APAP + H-pre, Time 24 hr): 292.828 IU/L
ALT(IU/L) mean ([3]; G6 APAP + H-pre, Time 48 hr): 49.2459 IU/L
ALT(IU/L) mean ([3]; G7 APAP + Low-post, Time 0 hr): 30.889 IU/L
ALT(IU/L) mean ([3]; G7 APAP + Low-post, Time 24 hr): 1341.82 IU/L
ALT(IU/L) mean ([3]; G7 APAP + Low-post, Time 48 hr): 134.182 IU/L
ALT(IU/L) mean ([3]; G8 APAP + High-post, Time 0 hr): 29.1592 IU/L
ALT(IU/L) mean ([3]; G8 APAP + High-post, Time 24 hr): 1771.79 IU/L
ALT(IU/L) mean ([3]; G8 APAP + High-post, Time 48 hr): 227.59 IU/L
reduction of the elevated ALT level induced by 400 mg/kg of APAP ([3]; prevention setting (G5), 25 mg/kg): 20%
reduction of the elevated ALT level induced by 400 mg/kg of APAP ([3]; prevention setting (G6), 50 mg/kg): 90% and > 90%
reduction of the APAP-induced ALT elevations ([3]; treatment setting (G7), 25 mg/kg after APAP): ~ 50% and 50%
reduction of the APAP-induced ALT elevations ([3]; treatment setting (G8), 50 mg/kg after APAP): ~ 50% and 50%
